Experimental data published in US8304419B2, “Chemical compounds” (priority 2007, dated 2012).
Structures can show the parent of a compound that is named as a salt. Where two headings read alike, the source gives them in different places.

Test system: HIV wild type (WTRVA)
Experiment: HeLa cell assay, wild type virus (WTRVA)
Type: cell-based, HIV-1
Set-up: scale not given here
Details: HeLa-CD4-LTR-β-gal cells, wild type virus, read-out: WTRVA activity level
[1] = Human immunodeficiency virus 1, HeLa

Row | SMILES | IC50 [1] [nM] | IC50 (trifluoroacetate) [nM]
1 | Cc1ccc2[nH]c(C(=O)NCc3ccc(Cl)c(Oc4cc(Cl)cc(C#N)c4)c3F)c(C)c2c1 [Example 52, N-({4-chloro-3-[(3-chloro-5-cyanophenyl)oxy]-2-fluorophenyl}methyl)-3,5-dimethyl-1H-indole-2-carboxamide trifluoroacetate] | 10 to 1000 | –
2 | N#Cc1cc(Cl)cc(Oc2c(Cl)ccc(CNC(=O)c3[nH]c4ccccc4c3Br)c2F)c1 [Example 53, 3-bromo-N-({4-chloro-3-[(3-chloro-5-cyanophenyl)oxy]-2-fluorophenyl}methyl)-1H-indole-2-carboxamide] | 10 to 1000 | –
3 | N#Cc1cc(Cl)cc(Oc2c(Cl)ccc(CNC(=O)c3[nH]c4ccccc4c3Br)c2F)c1 [Example 54, 3-bromo-N-({4-chloro-3-[(3-chloro-5-cyanophenyl)oxy]-2-fluorophenyl}methyl)-1H-indole-2-carboxamide trifluoroacetate] | – | < 10
4 | N#Cc1cc(Cl)cc(Oc2c(Cl)ccc(CNC(=O)c3[nH]c4cc(Cl)ccc4c3Cl)c2F)c1 [Example 55, 3,6-dichloro-N-({4-chloro-3-[(3-chloro-5-cyanophenyl)oxy]-2-fluorophenyl}methyl)-1H-indole-2-carboxamide trifluoroacetate] | 10 to 1000 | –
5 | COc1ccc2[nH]c(C(=O)NCc3ccc(Cl)c(Oc4cc(Cl)cc(C#N)c4)c3F)c(NC(C)=O)c2c1 [Example 56, 3-(acetylamino)-N-({4-chloro-3-[(3-chloro-5-cyanophenyl)oxy]-2-fluorophenyl}methyl)-5-(methyloxy)-1H-indole-2-carboxamide trifluoroacetate] | 10 to 1000 | –
6 | N#Cc1cc(Cl)cc(Oc2c(Cl)ccc(CNC(=O)c3ccc[nH]3)c2F)c1 [Example 57, N-({4-chloro-3-[(3-chloro-5-cyanophenyl)oxy]-2-fluorophenyl}methyl)-1H-pyrrole-2-carboxamide] | < 10 | –
7 | N#Cc1cc(Cl)cc(Oc2c(Cl)ccc(CNC(=O)c3ncc[nH]3)c2F)c1 [Example 59, N-({4-chloro-3-[(3-chloro-5-cyanophenyl)oxy]-2-fluorophenyl}methyl)-1H-imidazole-2-carboxamide trifluoroacetate] | < 10 | –
8 | N#Cc1cc(Cl)cc(Oc2c(Cl)ccc(CNC(=O)c3[nH]c4cc(O)ccc4c3Br)c2F)c1 [Example 61, 3-bromo-N-({4-chloro-3-[(3-chloro-5-cyanophenyl)oxy]-2-fluorophenyl}methyl)-6-hydroxy-1H-indole-2-carboxamide trifluoroacetate] | < 10 | –
9 | Cc1cc(C)c(C(=O)NCc2ccc(Cl)c(Oc3cc(Cl)cc(C#N)c3)c2F)[nH]1 [Example 62, N-({4-chloro-3-[(3-chloro-5-cyanophenyl)oxy]-2-fluorophenyl}methyl)-3,5-dimethyl-1H-pyrrole-2-carboxamide trifluoroacetate] | < 10 | –
10 | Cn1cnc(C(=O)NCc2ccc(Cl)c(Oc3cc(Cl)cc(C#N)c3)c2F)c1 [Example 64, N-({4-chloro-3-[(3-chloro-5-cyanophenyl)oxy]-2-fluorophenyl}methyl)-1-methyl-1H-imidazole-4-carboxamide trifluoroacetate] | 10 to 1000 | –
11 | CSc1nc(C(=O)NCc2ccc(Cl)c(Oc3cc(Cl)cc(C#N)c3)c2F)cn1C(c1ccccc1)(c1ccccc1)c1ccccc1 [Example 65, N-({4-chloro-3-[(3-chloro-5-cyanophenyl)oxy]-2-fluorophenyl}methyl)-2-(methylthio)-1-(triphenylmethyl)-1H-imidazole-4-carboxamide trifluoroacetate] | 10 to 1000 | –
12 | CSc1ncc(C(=O)NCc2ccc(Cl)c(Oc3cc(Cl)cc(C#N)c3)c2F)[nH]1 [Example 66, N-({4-chloro-3-[(3-chloro-5-cyanophenyl)oxy]-2-fluorophenyl}methyl)-2-(methylthio)-1H-imidazole-4-carboxamide trifluoroacetate] | 10 to 1000 | –
13 | Cn1cncc1C(=O)NCc1ccc(Cl)c(Oc2cc(Cl)cc(C#N)c2)c1F [Example 67, N-({4-chloro-3-[(3-chloro-5-cyanophenyl)oxy]-2-fluorophenyl}methyl)-1-methyl-1H-imidazole-5-carboxamide trifluoroacetate] | 10 to 1000 | –
14 | N#Cc1cc(Cl)cc(Oc2c(Cl)ccc(CNC(=O)c3[nH]cnc3[N+](=O)[O-])c2F)c1 [Example 68, N-({4-chloro-3-[(3-chloro-5-cyanophenyl)oxy]-2-fluorophenyl}methyl)-4-nitro-1H-imidazole-5-carboxamide trifluoroacetate] | < 10 | –
15 | N#Cc1cc(Cl)cc(Oc2c(Cl)ccc(CNC(=O)c3n[nH]c([N+](=O)[O-])c3Br)c2F)c1 [Example 69, 4-bromo-N-({4-chloro-3-[(3-chloro-5-cyanophenyl)oxy]-2-fluorophenyl}methyl)-5-nitro-1H-pyrazole-3-carboxamide trifluoroacetate] | 10 to 1000 | –
16 | N#Cc1cc(Cl)cc(Oc2c(Cl)ccc(CNC(=O)c3cc([N+](=O)[O-])c[nH]3)c2F)c1 [Example 70, N-({4-chloro-3-[(3-chloro-5-cyanophenyl)oxy]-2-fluorophenyl}methyl)-4-nitro-1H-pyrrole-2-carboxamide trifluoroacetate] | < 10 | –
17 | Cc1[nH]c(C(=O)NCc2ccc(Cl)c(Oc3cc(Cl)cc(C#N)c3)c2F)c(C)c1C#N [Example 71, N-({4-chloro-3-[(3-chloro-5-cyanophenyl)oxy]-2-fluorophenyl}methyl)-4-cyano-3,5-dimethyl-1H-pyrrole-2-carboxamide trifluoroacetate] | < 10 | –
18 | Cn1ccnc1C(=O)NCc1ccc(Cl)c(Oc2cc(Cl)cc(C#N)c2)c1F [Example 72, N-({4-chloro-3-[(3-chloro-5-cyanophenyl)oxy]-2-fluorophenyl}methyl)-1-methyl-1H-imidazole-2-carboxamide trifluoroacetate] | 10 to 1000 | –
19 | COc1ccc2[nH]c(C(=O)NCc3ccc(Cl)c(Oc4cc(Cl)cc(C#N)c4)c3F)cc2c1Br [Example 73, 4-bromo-N-({4-chloro-3-[(3-chloro-5-cyanophenyl)oxy]-2-fluorophenyl}methyl)-5-(methyloxy)-1H-indole-2-carboxamide trifluoroacetate] | 10 to 1000 | –
20 | CC(=O)NCc1ccc2cc(C(=O)NCc3ccc(Cl)c(Oc4cc(Cl)cc(C#N)c4)c3F)[nH]c2c1 [Example 74, 6-[(acetylamino)methyl]-N-({4-chloro-3-[(3-chloro-5-cyanophenyl)oxy]-2-fluorophenyl}methyl)-1H-indole-2-carboxamide trifluoroacetate] | < 10 | –
21 | N#Cc1cc(Cl)cc(Oc2c(Cl)ccc(CNC(=O)c3[nH]c4ccccc4c3Cl)c2F)c1 [Example 75, 3-chloro-N-({4-chloro-3-[(3-chloro-5-cyanophenyl)oxy]-2-fluorophenyl}methyl)-1H-indole-2-carboxamide trifluoroacetate] | < 10 | –
22 | CCN(CC)S(=O)(=O)c1c[nH]c(C(=O)NCc2ccc(Cl)c(Oc3cc(Cl)cc(C#N)c3)c2F)c1 [Example 76, N-({4-chloro-3-[(3-chloro-5-cyanophenyl)oxy]-2-fluorophenyl}methyl)-4-[(diethylamino)sulfonyl]-1H-pyrrole-2-carboxamide trifluoroacetate] | 10 to 1000 | –
23 | CCc1nc(Cl)c(C(=O)NCc2ccc(Cl)c(Oc3cc(Cl)cc(C#N)c3)c2F)[nH]1 [Example 77, 4-chloro-N-({4-chloro-3-[(3-chloro-5-cyanophenyl)oxy]-2-fluorophenyl}methyl)-2-ethyl-1H-imidazole-5-carboxamide trifluoroacetate] | < 10 | –
